In patent US5648333A, “Peptides having bradykinin antagonist action” (Hoechst Aktiengesellschaft, priority 1988, dated 1997):
Where a SMILES comes first, the peptide text is derived from it. [ ]: non-standard residue; d: D form. Oic = O=C(O)[C@@H]1C[C@@H]2CCCC[C@@H]2N1; Hyp = O=C(O)[C@@H]1C[C@@H](O)CN1; dTic = O=C(O)[C@H]1Cc2ccccc2CN1

Target: T1, isolated pulmonary artery of the guinea pig (Cavia porcellus, UniProt O70526)
T1 sequence (O70526 1-372): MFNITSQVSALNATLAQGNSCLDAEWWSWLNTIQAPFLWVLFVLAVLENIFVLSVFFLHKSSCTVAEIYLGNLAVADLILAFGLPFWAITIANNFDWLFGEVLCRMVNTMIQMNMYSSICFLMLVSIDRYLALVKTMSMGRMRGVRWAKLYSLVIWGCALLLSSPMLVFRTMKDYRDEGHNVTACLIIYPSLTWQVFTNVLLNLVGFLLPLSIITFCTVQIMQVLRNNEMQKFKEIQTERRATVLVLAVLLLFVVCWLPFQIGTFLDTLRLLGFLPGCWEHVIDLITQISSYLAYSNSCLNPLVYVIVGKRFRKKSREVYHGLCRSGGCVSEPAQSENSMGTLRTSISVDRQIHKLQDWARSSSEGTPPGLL
Assay: bradykinin antagonist action on the isolated arteria pulmonalis of the guinea pig (decrease of bradykinin-induced contraction)
Experimental: For testing the peptides according to the invention on the isolated arteria pulmonalis, guinea pigs (Dunkin Hartley) having a weight of 400-450 g are sacrificed by a blow to the back of the neck.
The thorax is opened and the arteria pulmonalis is carefully dissected out. The surrounding tissue is carefully removed and the arteria pulmonalis is cut spirally at an angle of 45°.
The vessel strip of 2.5 cm length and 3-4 mm width is fixed in a 10 ml capacity organ bath which is filled with Ringer solution.
95% O2 and 5% CO2 is bubbled through the solution, which is warmed to 37° C. The pH is 7.4 and the preload on the vessel strip is 1.0 g.
The isotonic contraction changes are detected using a lever arrangement and an HF modem (position sensor) from Hugo Sachs and recorded on a compensating recorder (BEC, Goerz Metrawatt SE 460).
After equilibration for 1 hour, the experiment is begun.
For the detection of a partial agonistic effect, the peptides are used in the doses 1×10^-5 -1×10^-3 mol/l.

[1] = Table 1, vessel strip contracted with 2×10^-7 mol/l of bradykinin, peptides act 10 minutes, calculated from dose-effect curves

IC50 [1] [µM] | Compound | IC50 (table by Example No., test not named there, values coincide with Table 1) [µM]
– | N=C(N)NCCC[C@@H](N)C(=O)N[C@@H](CCCNC(=N)N)C(=O)N1CCC[C@H]1C(=O)N1C[C@H](O)C[C@H]1C(=O)NCC(=O)N[C@@H](Cc1cccs1)C(=O)N[C@@H](CO)C(=O)N1Cc2ccccc2C[C@@H]1C(=O)N1[C@H](C(=O)N[C@@H](CCCNC(=N)N)C(=O)O)C[C@@H]2CCCC[C@@H]21 [Example 59, H-(D)-Arg-Arg-Pro-Hyp-Gly-Thia-Ser-(D)-Tic-Oic-Arg-OH] | 0.0054
0.0059 | CC(C)C[C@H](NC(=O)CNC(=O)[C@@H]1C[C@@H](O)CN1C(=O)[C@@H]1CCCN1C(=O)[C@H](CCCNC(=N)N)NC(=O)[C@H](N)CCCNC(=N)N)C(=O)N[C@@H](CO)C(=O)N1Cc2ccccc2C[C@@H]1C(=O)N1[C@H](C(=O)N[C@@H](CCCNC(=N)N)C(=O)O)C[C@@H]2CCCC[C@@H]21 [Example 199, H-(D)-Arg-Arg-Pro-Hyp-Gly-Leu-Ser-(D)-Tic-Oic-Arg-OH] (H-[dR]RP[Hyp]GLS[dTic][Oic]R-OH) | –
0.037 | N=C(N)NCCC[C@@H](N)C(=O)N[C@@H](CCCNC(=N)N)C(=O)N1CCC[C@H]1C(=O)N1C[C@H](O)C[C@H]1C(=O)NCC(=O)N[C@@H](CC1CCCCC1)C(=O)N[C@@H](CO)C(=O)N1Cc2ccccc2C[C@@H]1C(=O)N1[C@H](C(=O)N[C@@H](CCCNC(=N)N)C(=O)O)C[C@@H]2CCCC[C@@H]21 [Example 200, H-(D)-Arg-Arg-Pro-Hyp-Gly-Cha-Ser-(D)-Tic-Oic-Arg-OH] | –
6 | CC(C)(C)[C@H](NC(=O)CNC(=O)[C@@H]1C[C@@H](O)CN1C(=O)[C@@H]1CCCN1C(=O)[C@H](CCCNC(=N)N)NC(=O)[C@H](N)CCCNC(=N)N)C(=O)N[C@@H](CO)C(=O)N1Cc2ccccc2C[C@@H]1C(=O)N1[C@H](C(=O)N[C@@H](CCCNC(=N)N)C(=O)O)C[C@@H]2CCCC[C@@H]21 [Example 201, H-(D)-Arg-Arg-Pro-Hyp-Gly-Tbg-Ser-(D)-Tic-Oic-Arg-OH] | –
